According to PMC12067444, “Synthesis and Pharmacological Characterization of Novel Peripheral Cannabinoid-1 Receptor Blockers Based on a Tricyclic Scaffold” (Journal of Medicinal Chemistry, 2025):

Columns and labels:
[1] = target: hERG cardiac potassium channel (Homo sapiens, UniProt Q12809); test: hERG automated patch clamp (SyncroPatch 384PE); type: cell-based; details: whole cell hERG currents
human CB2R = target: T1, human CB2R (Homo sapiens, UniProt P34972); test: Radioligand competition displacement binding, [3H]CP-55,940, membranes with human CB2R; details: [3H]CP-55,940 displacement, read-out: CB2R hKi
T1 construct: purchased PerkinElmer; Charles River RBXCB2M400UA; A618
Method: BNS compounds’ binding to CB1R and CB2R was assessed in competition displacement assays using [^3H]CP-55,940 as the radioligand and crude membranes from mouse brain or human cells overexpressing the CB1R or CB2R. All data were in triplicates with Ki values determined from three independent experiments. See SI for a detailed procedure.
Supplementary Experimental Methods […]
CB1R and CB2R binding. Binding to the CB1R/CB2R was asse ss ed using competition displacement as says with [ 3H] CP -55,940 as the radioligand. Purified membranes from the mouse brain were utilized for CB1R assessment (as described above). Purified […]
membranes from cells overexpressing human CB2R ( Char les River CAT # A618) w e r e employed for CB2R evaluation. […]
Radioligand binding assays were performed to asse ss the binding affinity of the different compounds to hCB1R (RBHCB1M4 00UA; Per kinElmer) or hCB 2R
(RBXCB2 M400UA; PerkinElmer). Competition displacement as says w ere employed, […]
utilizing [3H] C P -55,940 as the radioligand and crude membranes from humans for CB1 R or CB2 R. T he compounds were tested at various concentrations (eight points with a five-fold serial dilution starting at two m M) , and their ability to displace [3H] CP - 55, 940 was evaluated. Upon completion of the binding assays, the reaction mixture was filtered through GF/C plates, followed by four washes with cold wash buffer. After drying for one hour, 50 μL of Perkin Elmer Microscint 20 cocktail was added to the filter plate wells, and the bound [3H] C P -55,940 radioligand was measured using a β counter. All data points were duplicated, and Ki values were determined from two independent experiments using GraphPad Prism 7.02 analysis software, extracted through nonlinear regression analysis. […]
MgCl 2. The tissue was homogenized using a glass -Teflon and Hei-T ORQUE 200 homogenizer (Heidolph; Cat#17- 012- 002- 25 -1) set to 132 rpm. The resulting suspen sion underwent centrifugation at 48,000 × g for 20 min at four °C, and the supernatant was discarded. The pellet obtained was homogenized again and subjected to a second centrifugation under the same conditions. Subsequently, the resulting pellet […]
mM EGTA, 9 mM MgCl 2, and 150 mM NaCl, followed by homogenization. The protein concentration of the suspension was determined using the BCA assay, and the suspen sion was diluted to a final concentration of 2 mg/mL in assay buffer. The prepared suspension was aliquoted on ice and stored at - 80 °C for further use.

P-gp (MDR1) = P-gp (MDR1) (Homo sapiens, UniProt P08183); test: Bidirectional permeability in MDR1-MDCKII cells with and without GF120918; details: dog; for Papp A→B at 2.5 h / Papp B→A at 2.5 h / efflux ratio at 2.5 h: MDCK-MDR1
Method: (§1) MDR1-MDCKII cells were seeded onto […] (PET) in a 96-well insert system. Test and reference compounds were administered to the apical (A-to-B) and basolateral (B-to-A) sides of the cell monolayer. Permeation of the compounds in both directions was assessed, with and without a P-glycoprotein (P-gp) inhibitor (GF120918). […] After a 2.5-h incubation period, each compound’s permeability and efflux ratio were calculated as described in the SI. […]
(§2) Bidirectional permeability assessment in MDR1-MDCK cells. Test and reference compounds were quantified using LC -MS/MS ana lysis based on th e peak ar ea r atio of analyte to internal standard (IS). T he apparent permeability coefficient (Papp) in cm/s was computed using the equation: Pa pp = (dCr/d t ) × V r / ( A × C 0), where dCr/ d t […]
(§3) represents the cumulative concentration of the compound in the receiver chamber over time (µM/s), Vr is the solution volume in the receiver chamber (0.075 mL on the apical side, 0.25 mL on the basolateral side), A is the surface area for transport (0.0804 cm2 f or the monolayer ar ea), and C0 is the initial concentration in the donor chamber ( µM) .
(§4) The efflux ratio was determined using the equation Efflux Ratio = P a pp ( B:
(§5) A ) / Pa pp (A: B) . […]
(§6) Additionally, the percent of lucifer yellow in the basolateral well was calculated using the equation:
(§7) Lucif er yellow = VV bbbbbbbbbbbbbbbbbbbb ×RR FFFF bbbbbbbbbbbbbbbbbbbb ×100 VV bbaaaaaa bbbb ×RRRRRR bbaaaaaa bbbb+VV bbbbbbbbbbbbbbbbbbbb ×RRFFFF bbbbbbbbbbbbbbbbbbbb wher e RFUApical and RFUBasolateral demote the r elative f luor escence unit values of lucif er yellow in the apical and basolateral wells, respectively, and VApical and VBasolateral represent the volumes of apical and basolateral wells (0.075 mL and 0.25 mL, r espectively) . T he % Lucif er Yellow should be less than 2, indicating minimal leakage. […]

P-gp (MDR1-MDCKII cells) = P-gp (MDR1-MDCKII cells) (Homo sapiens, UniProt P08183); test: as above; details: for P-gp substrate: MDR1-MDCKII cells; for Rank Papp: MDR1-MDCKII permeability rank
Method: as §1, §2, §3, §4, §5, §6, §7

[2] = MDCK-MDR1, Mean recovery % A to B, without GF120918
[3] = MDCK-MDR1, Mean recovery % B to A, without GF120918

T1 sequence (P34972 whole entry): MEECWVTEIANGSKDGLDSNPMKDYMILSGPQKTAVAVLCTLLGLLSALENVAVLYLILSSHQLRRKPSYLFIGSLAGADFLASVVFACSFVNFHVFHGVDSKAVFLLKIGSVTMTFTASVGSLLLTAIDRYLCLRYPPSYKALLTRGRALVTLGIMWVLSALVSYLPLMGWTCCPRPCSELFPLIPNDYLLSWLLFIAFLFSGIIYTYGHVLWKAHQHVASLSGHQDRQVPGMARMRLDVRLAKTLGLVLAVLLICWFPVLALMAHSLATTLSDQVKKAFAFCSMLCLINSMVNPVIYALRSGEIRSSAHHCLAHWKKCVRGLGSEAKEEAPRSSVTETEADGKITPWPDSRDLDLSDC
Sequence of P-gp (MDR1) (P08183 whole entry): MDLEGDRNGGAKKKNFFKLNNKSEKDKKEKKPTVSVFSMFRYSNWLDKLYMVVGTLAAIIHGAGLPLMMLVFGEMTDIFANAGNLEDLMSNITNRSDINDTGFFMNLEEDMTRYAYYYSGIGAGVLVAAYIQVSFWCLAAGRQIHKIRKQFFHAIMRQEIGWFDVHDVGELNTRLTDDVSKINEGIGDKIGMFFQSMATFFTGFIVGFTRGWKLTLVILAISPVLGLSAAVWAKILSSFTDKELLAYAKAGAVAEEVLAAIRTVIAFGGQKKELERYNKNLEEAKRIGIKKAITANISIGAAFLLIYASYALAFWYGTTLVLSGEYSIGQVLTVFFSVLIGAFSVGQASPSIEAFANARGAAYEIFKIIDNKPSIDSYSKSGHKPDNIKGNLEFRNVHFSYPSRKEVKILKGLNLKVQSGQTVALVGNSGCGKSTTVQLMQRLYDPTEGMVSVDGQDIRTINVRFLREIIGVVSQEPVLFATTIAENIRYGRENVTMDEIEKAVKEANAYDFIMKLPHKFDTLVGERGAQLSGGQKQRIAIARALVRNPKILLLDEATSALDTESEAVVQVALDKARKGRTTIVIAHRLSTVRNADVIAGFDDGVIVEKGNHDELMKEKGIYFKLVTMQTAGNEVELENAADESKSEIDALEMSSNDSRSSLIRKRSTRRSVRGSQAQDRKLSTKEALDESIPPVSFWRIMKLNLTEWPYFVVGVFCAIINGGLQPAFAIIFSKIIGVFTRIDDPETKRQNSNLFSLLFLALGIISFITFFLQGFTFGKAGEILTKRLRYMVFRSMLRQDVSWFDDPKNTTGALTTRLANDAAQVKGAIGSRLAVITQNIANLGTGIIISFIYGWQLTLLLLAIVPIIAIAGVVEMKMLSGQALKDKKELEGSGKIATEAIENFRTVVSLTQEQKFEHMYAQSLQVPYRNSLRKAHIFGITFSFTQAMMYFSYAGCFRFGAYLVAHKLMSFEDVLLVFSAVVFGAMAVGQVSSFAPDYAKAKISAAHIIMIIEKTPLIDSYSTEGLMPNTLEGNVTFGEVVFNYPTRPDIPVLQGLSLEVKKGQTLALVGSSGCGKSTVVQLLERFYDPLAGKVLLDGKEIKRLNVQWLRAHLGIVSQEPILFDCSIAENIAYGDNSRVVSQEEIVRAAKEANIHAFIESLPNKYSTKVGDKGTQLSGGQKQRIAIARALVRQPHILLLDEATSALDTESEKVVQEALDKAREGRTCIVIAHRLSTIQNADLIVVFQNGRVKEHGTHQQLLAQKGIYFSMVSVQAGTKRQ
Sequence of P-gp (MDR1-MDCKII cells) (P08183 whole entry): as above
Sequence of hERG cardiac potassium channel (Q12809 whole entry): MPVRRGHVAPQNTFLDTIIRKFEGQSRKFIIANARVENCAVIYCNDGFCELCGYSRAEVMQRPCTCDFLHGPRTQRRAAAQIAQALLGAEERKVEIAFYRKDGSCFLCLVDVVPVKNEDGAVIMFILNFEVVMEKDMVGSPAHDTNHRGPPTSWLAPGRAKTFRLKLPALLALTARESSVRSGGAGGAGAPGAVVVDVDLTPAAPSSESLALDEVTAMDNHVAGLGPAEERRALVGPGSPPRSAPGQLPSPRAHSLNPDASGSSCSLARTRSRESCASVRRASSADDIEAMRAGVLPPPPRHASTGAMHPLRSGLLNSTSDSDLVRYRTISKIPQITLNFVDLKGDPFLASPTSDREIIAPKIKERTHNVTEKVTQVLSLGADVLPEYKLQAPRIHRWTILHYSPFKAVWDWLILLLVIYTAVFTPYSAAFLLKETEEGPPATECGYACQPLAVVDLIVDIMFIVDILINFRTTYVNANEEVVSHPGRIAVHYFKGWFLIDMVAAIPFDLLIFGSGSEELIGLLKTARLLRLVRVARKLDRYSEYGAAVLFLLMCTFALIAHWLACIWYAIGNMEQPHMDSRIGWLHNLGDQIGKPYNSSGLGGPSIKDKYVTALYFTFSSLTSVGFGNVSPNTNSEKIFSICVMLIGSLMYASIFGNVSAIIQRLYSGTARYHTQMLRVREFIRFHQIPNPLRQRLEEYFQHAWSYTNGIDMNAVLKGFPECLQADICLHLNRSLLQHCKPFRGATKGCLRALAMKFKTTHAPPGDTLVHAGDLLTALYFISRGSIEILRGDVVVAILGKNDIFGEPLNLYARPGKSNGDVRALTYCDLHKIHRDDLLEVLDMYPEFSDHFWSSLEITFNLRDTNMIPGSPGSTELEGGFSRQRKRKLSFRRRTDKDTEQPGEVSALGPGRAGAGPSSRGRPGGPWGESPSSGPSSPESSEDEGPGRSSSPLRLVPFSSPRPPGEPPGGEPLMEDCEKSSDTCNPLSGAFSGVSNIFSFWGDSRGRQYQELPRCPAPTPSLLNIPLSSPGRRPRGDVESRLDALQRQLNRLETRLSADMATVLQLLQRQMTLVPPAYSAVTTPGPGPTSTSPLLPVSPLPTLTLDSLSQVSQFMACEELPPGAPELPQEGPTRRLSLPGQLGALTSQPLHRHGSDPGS

| Ki (human CB2R) [µM] | recovery at 2.5 h (P-gp (MDR1); MDCK-MDR1, with GF120918 (concentration not stated), Mean recovery % A to B, with GF120918) [%] | recovery at 2.5 h (P-gp (MDR1); MDCK-MDR1, with GF120918 (concentration not stated), Mean recovery % B to A, with GF120918) [%] | Compound | IC50 [1] [µM] | Papp A→B at 2.5 h (P-gp (MDR1)) [×10⁻⁶ cm/s] | Papp B→A at 2.5 h (P-gp (MDR1)) [×10⁻⁶ cm/s] | efflux ratio at 2.5 h (P-gp (MDR1)) | recovery at 2.5 h (P-gp (MDR1); MDCK-MDR1, Mean recovery % A to B, with GF120918) [%] | recovery at 2.5 h (P-gp (MDR1); [2]) [%] | recovery at 2.5 h (P-gp (MDR1); MDCK-MDR1, Mean recovery % B to A, with GF120918) [%] | recovery at 2.5 h (P-gp (MDR1); [3]) [%] | Papp A:B (P-gp (MDR1-MDCKII cells); A to B, without GF120918) | P-gp substrate (P-gp (MDR1-MDCKII cells)) | Rank Papp (P-gp (MDR1-MDCKII cells)) |
| --- | --- | --- | --- | --- | --- | --- | --- | --- | --- | --- | --- | --- | --- | --- |
| 1.65 | – | – | Cc1ccc(S(=O)(=O)NC2CCCOc3c2nn(-c2ccccc2Cl)c3-c2ccc(Cl)cc2)cc1 (stereo not shown) [BNS807] | 18 | – | – | – | – | – | – | – | – | – | – |
| 6.31 | 63.8 | 77.6 | CS(=O)(=O)N1CCC(C(=O)NC2CCCOc3c2nn(-c2ccccc2Cl)c3-c2ccc(Cl)cc2)CC1 (stereo not shown) [BNS815, N-[2-(2-Chlorophenyl)-3-(4-chlorophenyl)-5,6,7,8-tetrahydrooxepino[3,2-c]pyrazol-8-yl]-1-methylsulfonyl-piperidine-4-carboxamide] | 4.86 | 10.1 | 18.9 | 1.87 | – | 75.2 | – | 76.1 | – | yes | Hi gh |

| Compound | Ki (human CB2R) [µM] | recovery at 2.5 h (P-gp (MDR1); MDCK-MDR1, with GF120918 (concentration not stated), Mean recovery % A to B, with GF120918) [%] | recovery at 2.5 h (P-gp (MDR1); MDCK-MDR1, with GF120918 (concentration not stated), Mean recovery % B to A, with GF120918) [%] | IC50 [1] [µM] | Papp A→B at 2.5 h (P-gp (MDR1)) [×10⁻⁶ cm/s] | Papp B→A at 2.5 h (P-gp (MDR1)) [×10⁻⁶ cm/s] | efflux ratio at 2.5 h (P-gp (MDR1)) | recovery at 2.5 h (P-gp (MDR1); MDCK-MDR1, Mean recovery % A to B, with GF120918) [%] | recovery at 2.5 h (P-gp (MDR1); [2]) [%] | recovery at 2.5 h (P-gp (MDR1); MDCK-MDR1, Mean recovery % B to A, with GF120918) [%] | recovery at 2.5 h (P-gp (MDR1); [3]) [%] | Papp A:B (P-gp (MDR1-MDCKII cells); A to B, without GF120918) | P-gp substrate (P-gp (MDR1-MDCKII cells)) | Rank Papp (P-gp (MDR1-MDCKII cells)) |
| --- | --- | --- | --- | --- | --- | --- | --- | --- | --- | --- | --- | --- | --- | --- |
| O=S(=O)(NC1CCCOc2c1nn(-c1ccccc1Cl)c2-c1ccc(Cl)cc1)c1ccc(Cl)cc1 (stereo not shown) [BNS808, 4-chloro-N-[2-(2-chlorophenyl)-3-(4-chlorophenyl)-5,6,7,8-tetrahydrooxepino[3,2-c]pyrazol-8-yl]benzenesulfonamide] | 1.93 | – | – | 5.39 | 0.26 | 1.01 | 3.95 | 7.87 | 7.9 | 23.4 | 15.3 | 0.26 ×10^–6 cm/s | P-gp substrate and P-gp substrates and yes | Low |
